{
  "source": "paper PMC6934184",
  "about": "“Selective DNA-PKcs inhibition extends the therapeutic index of localized radiotherapy and chemotherapy” (The Journal of Clinical Investigation, 2019)",
  "biological_target": "T1, PIK3C2A (PI3K-C2 alpha) (Homo sapiens, UniProt O00443)",
  "T1 construct": "purchased Thermo Fisher Scientific (Life Technologies) SelectScreen",
  "T1 sequence (O00443 whole entry)": "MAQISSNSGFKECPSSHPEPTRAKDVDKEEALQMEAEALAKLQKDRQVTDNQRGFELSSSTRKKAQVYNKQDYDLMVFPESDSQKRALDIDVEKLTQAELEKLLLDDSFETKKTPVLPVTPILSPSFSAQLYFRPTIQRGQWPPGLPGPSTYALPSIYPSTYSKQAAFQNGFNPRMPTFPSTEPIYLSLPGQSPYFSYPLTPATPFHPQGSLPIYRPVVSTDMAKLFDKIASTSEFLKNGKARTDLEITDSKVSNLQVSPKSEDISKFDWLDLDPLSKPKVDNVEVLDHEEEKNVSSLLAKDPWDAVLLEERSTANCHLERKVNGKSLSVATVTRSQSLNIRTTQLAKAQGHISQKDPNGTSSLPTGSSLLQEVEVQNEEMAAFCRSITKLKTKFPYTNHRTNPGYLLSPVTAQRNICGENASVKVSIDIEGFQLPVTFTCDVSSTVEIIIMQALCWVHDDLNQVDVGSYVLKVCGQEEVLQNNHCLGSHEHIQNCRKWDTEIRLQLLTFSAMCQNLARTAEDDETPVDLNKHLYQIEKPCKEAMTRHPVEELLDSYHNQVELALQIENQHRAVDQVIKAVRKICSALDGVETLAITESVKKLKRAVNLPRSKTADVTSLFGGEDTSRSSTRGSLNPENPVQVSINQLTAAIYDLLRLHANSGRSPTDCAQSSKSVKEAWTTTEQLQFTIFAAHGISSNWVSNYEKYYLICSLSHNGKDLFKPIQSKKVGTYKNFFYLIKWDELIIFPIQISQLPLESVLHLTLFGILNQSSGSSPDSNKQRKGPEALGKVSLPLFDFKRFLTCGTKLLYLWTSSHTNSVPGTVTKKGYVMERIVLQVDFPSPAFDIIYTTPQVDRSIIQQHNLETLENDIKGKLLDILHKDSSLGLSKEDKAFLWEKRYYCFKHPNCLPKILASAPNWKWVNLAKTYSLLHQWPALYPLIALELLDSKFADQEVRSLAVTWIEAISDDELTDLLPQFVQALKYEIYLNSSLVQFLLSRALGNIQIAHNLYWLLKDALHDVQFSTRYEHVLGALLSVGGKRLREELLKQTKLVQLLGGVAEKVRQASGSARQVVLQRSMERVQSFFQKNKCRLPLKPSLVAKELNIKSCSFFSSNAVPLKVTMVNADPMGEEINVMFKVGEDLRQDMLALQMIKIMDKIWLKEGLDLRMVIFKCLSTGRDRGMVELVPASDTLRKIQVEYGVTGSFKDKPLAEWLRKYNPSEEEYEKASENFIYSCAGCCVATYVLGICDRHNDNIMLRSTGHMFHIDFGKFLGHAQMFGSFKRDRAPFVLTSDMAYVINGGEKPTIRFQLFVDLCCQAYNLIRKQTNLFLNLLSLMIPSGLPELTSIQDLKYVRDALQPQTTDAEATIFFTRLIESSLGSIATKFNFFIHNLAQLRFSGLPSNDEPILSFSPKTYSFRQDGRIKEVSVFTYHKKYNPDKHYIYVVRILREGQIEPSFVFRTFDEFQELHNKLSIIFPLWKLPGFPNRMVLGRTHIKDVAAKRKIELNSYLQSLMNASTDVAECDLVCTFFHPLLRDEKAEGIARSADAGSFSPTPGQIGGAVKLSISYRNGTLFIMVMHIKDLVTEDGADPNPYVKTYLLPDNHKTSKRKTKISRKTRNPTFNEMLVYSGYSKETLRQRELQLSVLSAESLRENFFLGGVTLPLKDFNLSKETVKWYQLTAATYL",
  "assay": "SelectScreen Adapta",
  "type": "biochemical",
  "procedure,_shortened": "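NU5455 was profiled across the SelectScreen Broad panel of kinase activity and binding assays. Z'LYTE reactions such as CSF1R ran at apparent Km ATP, while the Adapta CAMK1 assay used ATP listed as 10. Values are given as percent.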",
  "data": [
    {"smiles": "CN(C(=O)CN1CCOCC1)c1ccc2sc3c(-c4cccc5c(=O)cc(N6CC7CCC(C6)O7)oc45)cccc3c2c1", "note": "[NU5455]", "values": [
      {"measurement": "inhibition at 1 µM", "value": 1.3, "unit": "%"}
    ]}
  ]
}
